According to patent US11534457B2, “Use of dextran sulfate” (priority 2017, dated 2022):
Marks after values point to notes of the source that are not given here.

Tested on: severe traumatic brain injury (sTBI)
Assay: sTBI in rats, HPLC of purine-pyrimidine / energy metabolites in brain (Example 3)
Format: in vivo, Male Wistar rats
Details: sacrifice 7 days
Procedure: The experimental protocol used in this study was approved by the Ethical Committee of the Catholic University of Rome, according to international standards and guidelines for animal care. Male Wistar rats of 300-350 g body weight (b.w.) were fed with standard laboratory diet and water ad libitum in a controlled environment.
1) n=6 animals subjected to sTBI, with drug administration after 30 minutes and sacrifice at 2 days post-TBI (Acute phase 1)
2) n=6 animals subjected to severe-TBI, with drug administration after 30 minutes and sacrifice at 7 days post-TBI (Acute phase 2).
3) n=6 animals subjected to severe-TBI, with drug administration after 3 days and sacrifice at 7 days post-TBI (Chronic phase).
As the anesthetic mixture, animals received 35 mg/kg b.w. ketamine and 0.25 mg/kg b.w. midazolam by i.p. injection. sTBI was induced by dropping a 450 g weight from 2 m height on to the rat head that had been protected by a metal disk previously fixed on the skull, according to the “weight drop” impact acceleration model (Marmarou et al., A new model of diffuse brain injury in rats. Part I: Pathophysiology and biomechanics. J Neurosurg. 1994; 80: 291-300). […] At the end of each period of treatment, rats were anesthetized again and then immediately sacrificed.
The drug treatment was a subcutaneous injection of 0.5 ml of LMW-DS (15 mg/kg) and administered according to the aforementioned schematic protocol.
An in vivo craniectomy was performed in all animals during anesthesia, after carefully removing the rat's skull, the brain was exposed and removed with a surgical spatula and quickly dropped in liquid nitrogen. After the wet weight (w.w.) determination, tissue preparation was affected as previously disclosed (Tavazzi et al., Cerebral oxidative stress and depression of energy metabolism correlate with severity of diffuse brain injury in rats. Neurosurgery. 2005; 56: 582-589; Vagnozzi et al., Temporal window of metabolic brain vulnerability to concussions: mitochondrial-related impairment-part I. Neurosurgery. 2007; 61: 379-388; Tavazzi et al., Temporal window of metabolic brain vulnerability to concussions: oxidative and nitrosative stresses-part II. Neurosurgery. 2007; 61: 390-395; Amorini et al., Severity of experimental traumatic brain injury modulates changes in concentrations of cerebral free amino acids. J Cell Mol Med. 2017; 21: 530-542.). Briefly, whole brain homogenization was performed with 7 ml of ice-cold, nitrogen-saturated, precipitating solution composed by CH3CN+10 mM KH2PO4, pH 7.40, (3:1; v:v), and using an Ultra-Turrax set at 24,000 rpm/min (Janke & Kunkel, Staufen, Germany). After centrifugation at 20,690×g, for 10 min at 4° C., the clear supernatants were saved, pellets were supplemented with 3 ml of the precipitating solution and homogenized again as described above. A second centrifugation was performed (20,690×g, for 10 min at 4° C.), pellets were saved, supernatants combined with those previously obtained, extracted by vigorous agitation with a double volume of HPLC-grade CHCl3 and centrifuged as above. The upper aqueous phases containing water-soluble low-molecular weight compounds were collected, subjected to chloroform washings for two more times (this procedure allowed the removal of all the organic solvent and of any lipid soluble compound from the buffered tissue extracts), adjusted in volumes with 10 mM KH2PO4, pH 7.40, to have ultimately aqueous 10% tissue homogenates and saved at −80° C. until assayed. […]

[1] = Acute phase 2: 15 mg/kg s.c. 30 min post-sTBI
[2] = Chronic phase: 15 mg/kg s.c. 3 days post-sTBI

## low molecular weight dextran sulfate [LMW-DS]
[1]
  NO2, cerebral concentration: 226.40 ± 30.95^b nmol/g (w.w.)
  NO3, cerebral concentration: 198.56 ± 25.93^e,i nmol/g (w.w.)
  UDP, cerebral concentration: 40.38 ± 8.50^a,i nmol/g (w.w.)
  UDP-Gal, cerebral concentration: 145.14 ± 27.76 nmol/g (w.w.)
  UDP-GalNac, cerebral concentration: 19.90 ± 3.12^a,e nmol/g (w.w.)
  UDP-Glc, cerebral concentration: 44.44 ± 7.59^i nmol/g (w.w.)
  UDP-GlcNac, cerebral concentration: 130.65 ± 28.41^a nmol/g (w.w.)
  UMP, cerebral concentration: 138.73 ± 32.01^b nmol/g (w.w.)
  UTP, cerebral concentration: 146.71 ± 32.68^e nmol/g (w.w.)
  acetyl-CoA, cerebral concentration: 36.86 ± 4.11^e nmol/g (w.w.)
  adenine, cerebral concentration: 58.16 ± 6.36^a,f nmol/g (w.w.)
  ascorbic acid, cerebral concentration: 3512.58 ± 224.62^a,e nmol/g (w.w.)
  creatinine, cerebral concentration: 37.27 ± 5.82^a,e,j nmol/g (w.w.)
  cytidine, cerebral concentration: 16.18 ± 4.21^e nmol/g (w.w.)
  cytosine, cerebral concentration: 15.70 ± 4.10^f nmol/g (w.w.)
  guanine, cerebral concentration: 4.73 ± 1.07 nmol/g (w.w.)
  guanosine, cerebral concentration: 17.90 ± 3.24^j nmol/g (w.w.)
  hypoxanthine, cerebral concentration: 12.90 ± 2.58^a,j nmol/g (w.w.)
  inosine, cerebral concentration: 85.52 ± 20.36^e nmol/g (w.w.)
  malonyl-CoA, cerebral concentration: 11.29 ± 2.27^b nmol/g (w.w.)
  orotic acid, cerebral concentration: 13.34 ± 3.65^a nmol/g (w.w.)
  thymidine, cerebral concentration: 0.49 ± 0.20^f nmol/g (w.w.)
  uracil, cerebral concentration: 19.40 ± 7.52^a,e nmol/g (w.w.)
  uric acid, cerebral concentration: 19.17 ± 2.15^a,h,i nmol/g (w.w.)
  uridine, cerebral concentration: 63.02 ± 9.66^b,e nmol/g (w.w.)
  xanthine, cerebral concentration: 10.41 ± 2.11^f nmol/g (w.w.)
  β-pseudouridine, cerebral concentration: 13.26 ± 3.16^a,e,j nmol/g (w.w.)
[2]
  ADO, cerebral concentration: 89.97 ± 12.98^a nmol/g (w.w.)
  ADP, cerebral concentration: 315.53 ± 46.53^a nmol/g (w.w.)
  ADP-ribose, cerebral concentration: 173.94 ± 8.45^a nmol/g (w.w.)
  AMP, cerebral concentration: 90.01 ± 21.24^a nmol/g (w.w.)
  ATP, cerebral concentration: 1381.03 ± 212.64^a nmol/g (w.w.)
  CDP choline, cerebral concentration: 8.37 ± 2.19 nmol/g (w.w.)
  CDP, cerebral concentration: 23.55 ± 6.45^a nmol/g (w.w.)
  CMP, cerebral concentration: 20.51 ± 3.73^a,f nmol/g (w.w.)
  CTP, cerebral concentration: 25.23 ± 2.93^a,f nmol/g (w.w.)
  CoA-SH, cerebral concentration: 27.58 ± 6.24^f nmol/g (w.w.)
  GDP glucose, cerebral concentration: 43.85 ± 5.06^b nmol/g (w.w.)
  GDP, cerebral concentration: 173.05 ± 28.68^a,e nmol/g (w.w.)
  GMP, cerebral concentration: 148.56 ± 31.21^a nmol/g (w.w.)
  GSH, cerebral concentration: 2608.67 ± 358.07^a,e nmol/g (w.w.)
  GSSG, cerebral concentration: 231.08 ± 44.34^b,f nmol/g (w.w.)
  GTP, cerebral concentration: 290.92 ± 34.68^a,f nmol/g (w.w.)
  IMP, cerebral concentration: 99.29 ± 13.82^a nmol/g (w.w.)
  MDA, cerebral concentration: 11.62 ± 3.90^a,e nmol/g (w.w.)
  NADH, cerebral concentration: 11.78 ± 3.32^e nmol/g (w.w.)
  NADPH, cerebral concentration: 7.34 ± 2.65^f nmol/g (w.w.)
  NADP^+, cerebral concentration: 16.44 ± 2.66^a,f nmol/g (w.w.)
  NAD^+, cerebral concentration: 301.13 ± 29.90^a nmol/g (w.w.)
  NM, cerebral concentration: 6375.36 ± 974.12^a,e nmol/g (w.w.)
  NO2, cerebral concentration: 217.67 ± 55.04^a nmol/g (w.w.)
  NO3, cerebral concentration: 241.27 ± 18.84^e nmol/g (w.w.)
  UDP, cerebral concentration: 57.40 ± 5.88^a,f nmol/g (w.w.)
  UDP-Gal, cerebral concentration: 122.29 ± 12.15 nmol/g (w.w.)
  UDP-GalNac, cerebral concentration: 21.84 ± 2.80^a,e nmol/g (w.w.)
  UDP-Glc, cerebral concentration: 35.79 ± 3.45^b nmol/g (w.w.)
  UDP-GlcNac, cerebral concentration: 129.42 ± 15.88^b nmol/g (w.w.)
  UMP, cerebral concentration: 103.11 ± 29.79 nmol/g (w.w.)
  UTP, cerebral concentration: 136.80 ± 33.25^f nmol/g (w.w.)
  acetyl-CoA, cerebral concentration: 35.68 ± 6.55^e nmol/g (w.w.)
  adenine, cerebral concentration: 52.94 ± 8.59^a,f nmol/g (w.w.)
  ascorbic acid, cerebral concentration: 3375.03 ± 856.41^a,e nmol/g (w.w.)
  creatinine, cerebral concentration: 51.25 ± 10.17^a,f nmol/g (w.w.)
  cytidine, cerebral concentration: 14.71 ± 2.83^e nmol/g (w.w.)
  cytosine, cerebral concentration: 15.58 ± 2.50^b,f nmol/g (w.w.)
  guanine, cerebral concentration: 5.31 ± 1.04^b nmol/g (w.w.)
  guanosine, cerebral concentration: 28.87 ± 7.60^a,f nmol/g (w.w.)
  hypoxanthine, cerebral concentration: 17.97 ± 4.49^a nmol/g (w.w.)
  inosine, cerebral concentration: 105.81 ± 25.57^f nmol/g (w.w.)
  malonyl-CoA, cerebral concentration: 10.00 ± 1.95^b nmol/g (w.w.)
  orotic acid, cerebral concentration: 12.05 ± 1.50^a nmol/g (w.w.)
  thymidine, cerebral concentration: 0.71 ± 0.11 nmol/g (w.w.)
  uracil, cerebral concentration: 16.57 ± 2.99^a,f nmol/g (w.w.)
  uric acid, cerebral concentration: 27.77 ± 3.60^a nmol/g (w.w.)
  uridine, cerebral concentration: 63.28 ± 3.37^f nmol/g (w.w.)
  xanthine, cerebral concentration: 9.35 ± 0.83^f nmol/g (w.w.)
  β-pseudouridine, cerebral concentration: 18.62 ± 2.80^a nmol/g (w.w.)
